Results on 3 compounds are retold here after ChEMBL document CHEMBL3351500, “Fragment-based identification and optimization of a class of potent pyrrolo[2,1-f][1,2,4]triazine MAP4K4 inhibitors” (Bioorg Med Chem Lett, 2014).

Common to all, as to type: ADME, organism-based
A short description of series [1]: Volume of distribution at steady state in mouse plasma at 1 mg/kg, iv. The following applies: read-out: Vdss. On the set-up: dose 1 mg/kg, route intravenous.
The nature of series [2]: Clearance in mouse plasma at 1 mg/kg, iv. Details: dose 1 mg/kg, route intravenous.
Series [3] can be described thus: Oral bioavailability in mouse plasma at 25 mg/kg.

For `CN1CCN(c2ccc(-c3cc4c(Nc5ccncc5)ncnn4c3)cn2)CC1`, in series [1], the Vd came out at 15 L/kg. Moreover, the clearance in series [2] turned out to be 78 mL/min/kg.
On to `CS(=O)(=O)c1ccc(-c2cc3c(Nc4ccncc4)ncnn3c2)cc1`, for which, in series [3], the bioavailability stood at 6%. Also, in series [1], the Vd worked out at 1 L/kg. Moreover, the clearance in series [2] was 25 mL/min/kg.
The compound `CC(C)(O)Cn1cc(-c2ccc(-c3cc4c(Nc5ccncc5)ncnn4c3)cc2)cn1` displayed a bioavailability in series [3] of 16%. Further, the Vd in series [1] stood at 2 L/kg. The compound also came in with a clearance in series [2] of 22 mL/min/kg.
